Values of other authors in patent publication US20090325918A1, “Synthesis and separation of optically active isomers and cyclopropyl derivatives of spironolactone and their biological action” (priority 2008, published 2009).

How the values were obtained:
[1] = tested on: patients with congestive heart failure (CHF)
[2] = tested on: hypertensive patients; conditions: hypertensive patients using spironolactone for therapy; 1% of men in the placebo group

CC(=O)S[C@@H]1CC2=CC(=O)CC[C@]2(C)[C@H]2CC[C@@]3(C)[C@@H](CC[C@@]34CCC(=O)O4)[C@H]12 [spironolactone, 17-hydroxy-7-alpha-mercapto-3-oxo-17-alpha-pregn-4-ene-21-carboxylic acid gamma-lactone acetate]
Reduction in mortality (risk of death) ([1]; CHF patients taking digoxin and a loop diuretic, spironolactone with digitalis and ACE inhibitor): 30%
Patients who discontinued treatment because of adverse events ([1]; spironolactone group): 8%
Frequency of hospitalization for worsening heart failure, lower than in the placebo group ([1]; spironolactone treated group vs placebo group): 35%
Water solubility: poor
Gynecomastia or tender breast enlargement, occurrence in patients [2]: 10%
